Drawing on patent publication US20080234262A1 (Wyeth, priority 2007, published 2008), this text covers IC50 for 27 compounds.

Experiment [1] deals with breast line MDA468. Briefly: In vitro cell culture growth assay (MTS), MDA468. Type of experiment: cell-based, human. The settings on record: Homo sapiens, 72 h, MDA468 cells, three days after drug treatment. The method, boiled down:
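Growth measured as percent of same-plate vehicle control by MTS metabolic dye conversion (A490). Breast MDA468 and prostate LNCap cells, plated a day ahead, were exposed to compounds for 3 days.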

Experiment [2] has as its system prostate line LNCap. Briefly: In vitro cell culture growth assay (MTS), LNCap.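 Further: viable cell density read by absorbance at 490 nm, growth expressed as percent of vehicle-treated cells on the same plate.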 Type of experiment: cell-based, human. The settings on record: Homo sapiens, LNCaP, 72 h, LNCap cells, three days after drug treatment.
Experiment [3] has as its target PI3K (Homo sapiens, UniProt P42336). Briefly: Fluorescence polarization assay for PI3K.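 Further: PI3K kinase reaction on PIP2 with ATP, 30-60 min, product sensed by GST-GRP with red probe in fluorescence polarization (mP), controls without enzyme and at zero time.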 Format: biochemical. The settings on record: PI3Kα; read-out: PI3Kα IC50.

Each structure is given as a SMILES string. Some results are limits rather than exact numbers.

PI3K, sequence (P42336 whole entry): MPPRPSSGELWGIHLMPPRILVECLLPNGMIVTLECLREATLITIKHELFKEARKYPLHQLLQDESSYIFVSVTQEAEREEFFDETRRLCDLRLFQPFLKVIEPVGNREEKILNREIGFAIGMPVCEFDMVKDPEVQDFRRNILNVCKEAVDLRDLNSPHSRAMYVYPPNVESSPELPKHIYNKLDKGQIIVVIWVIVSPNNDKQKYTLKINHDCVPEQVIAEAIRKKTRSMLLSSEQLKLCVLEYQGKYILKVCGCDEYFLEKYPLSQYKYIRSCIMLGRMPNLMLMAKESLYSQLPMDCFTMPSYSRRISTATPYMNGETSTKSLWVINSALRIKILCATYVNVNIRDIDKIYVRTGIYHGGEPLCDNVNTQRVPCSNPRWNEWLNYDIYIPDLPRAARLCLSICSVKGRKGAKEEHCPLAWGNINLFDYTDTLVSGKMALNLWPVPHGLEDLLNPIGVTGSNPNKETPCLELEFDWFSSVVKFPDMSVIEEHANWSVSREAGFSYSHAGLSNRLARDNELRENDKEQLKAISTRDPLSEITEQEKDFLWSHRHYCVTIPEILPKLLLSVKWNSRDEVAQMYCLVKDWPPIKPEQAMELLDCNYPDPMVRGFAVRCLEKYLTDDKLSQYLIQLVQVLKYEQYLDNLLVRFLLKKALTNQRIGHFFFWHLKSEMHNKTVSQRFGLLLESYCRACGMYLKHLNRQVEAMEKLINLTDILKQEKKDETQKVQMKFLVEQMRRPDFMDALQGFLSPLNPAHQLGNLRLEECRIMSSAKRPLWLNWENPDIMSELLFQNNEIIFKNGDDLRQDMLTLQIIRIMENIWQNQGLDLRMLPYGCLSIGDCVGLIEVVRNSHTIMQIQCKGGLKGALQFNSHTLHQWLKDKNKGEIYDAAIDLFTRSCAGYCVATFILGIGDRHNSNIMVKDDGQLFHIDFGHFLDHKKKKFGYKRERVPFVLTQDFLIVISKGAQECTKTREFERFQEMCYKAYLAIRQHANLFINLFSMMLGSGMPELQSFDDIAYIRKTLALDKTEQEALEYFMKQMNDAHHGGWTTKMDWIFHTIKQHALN
PI3K, sequence (P27986 whole entry partner): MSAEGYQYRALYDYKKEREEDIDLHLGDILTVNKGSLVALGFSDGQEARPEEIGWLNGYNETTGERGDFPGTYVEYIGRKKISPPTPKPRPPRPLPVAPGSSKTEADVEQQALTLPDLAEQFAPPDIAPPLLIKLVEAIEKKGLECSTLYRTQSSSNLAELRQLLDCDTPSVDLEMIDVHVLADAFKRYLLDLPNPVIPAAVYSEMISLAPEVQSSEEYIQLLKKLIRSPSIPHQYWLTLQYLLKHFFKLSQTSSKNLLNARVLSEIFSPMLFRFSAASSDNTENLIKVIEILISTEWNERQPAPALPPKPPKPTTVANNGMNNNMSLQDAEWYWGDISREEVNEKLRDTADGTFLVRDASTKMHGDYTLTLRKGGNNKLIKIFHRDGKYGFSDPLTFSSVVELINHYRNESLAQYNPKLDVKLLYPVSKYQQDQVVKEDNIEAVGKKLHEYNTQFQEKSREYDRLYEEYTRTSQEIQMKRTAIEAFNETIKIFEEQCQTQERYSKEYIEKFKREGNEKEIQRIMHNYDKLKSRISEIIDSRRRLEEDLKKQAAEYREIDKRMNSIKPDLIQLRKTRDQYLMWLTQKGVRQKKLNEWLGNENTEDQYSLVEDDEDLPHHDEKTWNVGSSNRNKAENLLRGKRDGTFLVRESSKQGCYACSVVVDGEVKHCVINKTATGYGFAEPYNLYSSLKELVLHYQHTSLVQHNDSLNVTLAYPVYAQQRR

On to `O=C(Cc1ccccc1)N1CCC(n2ncc3c(N4CCOCC4)nc(-c4ccc5[nH]ccc5c4)nc32)CC1` [Compound 492, 6-(1H-indol-5-yl)-4-morpholin-4-yl-1-[1-(phenylacetyl)piperidin-4-yl]-1H-pyrazolo[3,4-d]pyrimidine], for which the IC50 turned out to be 3 µM in experiment [1], 0.7 µM in experiment [2] and 0.692 µM in experiment [3].
The corresponding values for `CC1CN(c2nc(-c3cccc(O)c3)nc3c2cnn3-c2ccccc2)CCO1` (stereo not drawn) [Compound 943, 3-[4-(2-methylmorpholin-4-yl)-1-phenyl-1H-pyrazolo[3,4-d]pyrimidin-6-yl]phenol] are 7.5 µM, 1.9 µM and 0.276 µM.
Consider `O=C(NC1CCCC1)c1ccc(-c2nc(N3CCOCC3)c3cnn(C4CCN(Cc5ccccc5)CC4)c3n2)cc1` [Example 70], for which the IC50 in experiment [1] came to 15 µM; in experiment [2], 3 µM; in experiment [3], 3.87 µM.
For `O=C(c1ccc(Cl)nc1)N1CCC(n2ncc3c(N4CCOCC4)nc(-c4cccc(O)c4)nc32)CC1` [Example 23] the same measures were 0.8 µM, 0.15 µM and 0.063 µM.
The corresponding values for `O=C1COCCN1c1nc(-c2cccc(O)c2)nc2c1cnn2-c1ccccc1` [Compound 727, 4-[6-(3-hydroxyphenyl)-1-phenyl-1H-pyrazolo[3,4-d]pyrimidin-4-yl]morpholin-3-one] are above 60 µM, 55 µM and 11 µM.
For `COC(=O)Nc1ccc(-c2nc(N3CCOCC3)c3cnn(C4CCN(C(=O)c5ccc(F)cc5)CC4)c3n2)cc1` [Example 445, methyl (4-{1-[1-(4-fluorobenzoyl)piperidin-4-yl]-4-morpholin-4-yl-1H-pyrazolo[3,4-d]pyrimidin-6-yl}phenyl)carbamate] the same measures were 1.6 µM, 0.58 µM and 0.989 µM.
Regarding `CNc1ccc(-c2nc(N3CCOCC3)c3cnn(-c4ccccc4)c3n2)cc1` [Compound 128], the IC50 in experiment [1] turned out to be 60 µM; in experiment [2] it was 4.8 µM; in experiment [3], 0.384 µM.
With `O=C(Nc1ccc(-c2nc(N3CCOCC3)c3cnn(C4CCN(CC(F)(F)F)CC4)c3n2)cc1)NC1CC1` [Compound 788, 1-cyclopropyl-3-(4-{4-morpholin-4-yl-1-[1-(2,2,2-trifluoroethyl)piperidin-4-yl]-1H-pyrazolo[3,4-d]pyrimidin-6-yl}phenyl)urea], the IC50 stood at 1.6 µM in experiment [1], 0.12 µM in experiment [2] and 0.734 µM in experiment [3].
For `CNC(=O)Nc1ccc(-c2nc(N3CCOCC3)c3cnn(C4CCN(C(=O)CC(=O)OC)CC4)c3n2)cc1` [Compound 757, methyl 3-[4-(6-{4-[(methylcarbamoyl)amino]phenyl}-4-morpholin-4-yl-1H-pyrazolo[3,4-d]pyrimidin-1-yl)piperidin-1-yl]-3-oxopropanoate], the IC50 in experiment [1] is 1.1 µM; in experiment [2], 2 µM; in experiment [3], 0.124 µM.
For `CN(C)S(=O)(=O)c1cccc(-c2nc(N3CCOCC3)c3cnn(C4CCN(Cc5ccccc5)CC4)c3n2)c1` [Example 69] the same measures were 4 µM, 3.1 µM and 10.5 µM.
For the compound `O=C(Nc1cccnc1)Nc1ccc(-c2nc(N3CCOCC3)c3cnn(C4CCN(Cc5cccnc5)CC4)c3n2)cc1F` [Compound 618, 1-(2-fluoro-4-{4-morpholin-4-yl-1-[1-(pyridin-3-ylmethyl)piperidin-4-yl]-1H-pyrazolo[3,4-d]pyrimidin-6-yl}phenyl)-3-pyridin-3-ylurea], the values for the IC50 in experiment [1], in experiment [2] and in experiment [3] were 0.15 µM, 0.04 µM and 0.054 µM, respectively.
The corresponding values for `Oc1cccc(-c2nc(N3CCOCC3)c3cnn(CCN4CCNCC4)c3n2)c1` [Compound 166] are 15 µM, 5.8 µM and 0.045 µM.
For `O=C(NO)Nc1ccc(-c2nc(N3CCOCC3)c3cnn(-c4ccccc4)c3n2)cc1` [Compound 539, 1-hydroxy-3-[4-(4-morpholin-4-yl-1-phenyl-1H-pyrazolo[3,4-d]pyrimidin-6-yl)phenyl]urea], the IC50 came out at 1.1 µM in experiment [1], 0.48 µM in experiment [2] and 0.211 µM in experiment [3].
The corresponding values for `CC(C)C(=O)N1CCC(n2ncc3c(N4CCOCC4)nc(-c4ccc(NC(=O)Nc5ccccn5)cc4)nc32)CC1` [Compound 827, 1-{4-[1-(1-isobutyrylpiperidin-4-yl)-4-morpholin-4-yl-1H-pyrazolo[3,4-d]pyrimidin-6-yl]phenyl}-3-pyridin-2-ylurea] are 16 µM, 0.6 µM and 2.26 µM.
As for `Cc1ccc(CN2CCC(n3ncc4c(N5CCOCC5)nc(-c5ccc6[nH]ccc6c5)nc43)CC2)cc1` [Example 56], the values for the IC50 in experiment [1], in experiment [2] and in experiment [3] were 2.7 µM, 2 µM and 0.425 µM, respectively.
As to `O=C(Nc1cccnc1)Nc1ccc(-c2nc(N3CCOCC3)c3cnn(C4CCN(Cc5cccnc5)CC4)c3n2)cc1F` [Example 373, 1-(2-fluoro-4-{4-morpholin-4-yl-1-[1-(pyridin-3-ylmethyl)piperidin-4-yl]-1H-pyrazolo[3,4-d]pyrimidin-6-yl}phenyl)-3-pyridin-3-ylurea], the IC50 came out at 0.2 µM in experiment [1], 0.04 µM in experiment [2] and 0.055 µM in experiment [3].
`COCCCNC(=O)Nc1ccc(-c2nc(N3CCOCC3)c3cnn(C4CCN(Cc5ccccc5)CC4)c3n2)cc1` [Compound 515, 1-{4-[1-(1-benzylpiperidin-4-yl)-4-morpholin-4-yl-1H-pyrazolo[3,4-d]pyrimidin-6-yl]phenyl}-3-(3-methoxypropyl)urea]: the IC50 is 3.2 µM in experiment [1], 0.6 µM in experiment [2] and 0.753 µM in experiment [3].
The corresponding values for `C=CCONC(=O)Nc1ccc(-c2nc(N3CCOCC3)c3cnn(-c4ccccc4)c3n2)cc1` [Compound 296, 1-(allyloxy)-3-[4-(4-morpholin-4-yl-1-phenyl-1H-pyrazolo[3,4-d]pyrimidin-6-yl)phenyl]urea] are 60 µM, 3 µM and 0.896 µM.
Turning to `COC(=O)Nc1ccc(-c2nc(N3CCOCC3)c3cnn(C4CCN(CCCCO)CC4)c3n2)cc1` [Compound 744, methyl (4-{1-[1-(4-hydroxybutyl)piperidin-4-yl]-4-morpholin-4-yl-1H-pyrazolo[3,4-d]pyrimidin-6-yl}phenyl)carbamate], the values for the IC50 in experiment [1], in experiment [2] and in experiment [3] were 10.2 µM, 3.5 µM and 1.05 µM, respectively.
The corresponding values for `N#CN=C(N)Nc1ccc(-c2nc(N3CCOCC3)c3cnn(C4CCN(C(=O)c5cccnc5)CC4)c3n2)cc1` [Example 411, 2-cyano-1-(4-{4-morpholin-4-yl-1-[1-(pyridin-3-ylcarbonyl)piperidin-4-yl]-1H-pyrazolo[3,4-d]pyrimidin-6-yl}phenyl)guanidine] are 12 µM, 20.1 µM and 0.344 µM.
For `O=C(Nc1ccc(-c2nc(N3CCOCC3)c3cnn(C4CCN(CC(F)(F)F)CC4)c3n2)cc1)Nc1ccccn1` [Compound 785, 1-(4-{4-morpholin-4-yl-1-[1-(2,2,2-trifluoroethyl)piperidin-4-yl]-1H-pyrazolo[3,4-d]pyrimidin-6-yl}phenyl)-3-pyridin-2-ylurea] the same measures were 12 µM, 3.8 µM and 0.89 µM.
As to `C#CCNC(=O)Nc1ccc(-c2nc(N3CCOCC3)c3cnn(C4CCN(Cc5ccccc5)CC4)c3n2)cc1` [Compound 557, 1-{4-[1-(1-benzylpiperidin-4-yl)-4-morpholin-4-yl-1H-pyrazolo[3,4-d]pyrimidin-6-yl]phenyl}-3-prop-2-yn-1-ylurea], the IC50 in experiment [1] was 3.9 µM; in experiment [2], 0.4 µM; in experiment [3], 0.173 µM.
The corresponding values for `O=C(Nc1cc(F)c(-c2nc(N3CCOCC3)c3cnn(C4CCN(C(=O)c5cccnc5)CC4)c3n2)cc1F)NC1CC1` [Compound 468, 1-cyclopropyl-3-(2,5-difluoro-4-{4-morpholin-4-yl-1-[1-(pyridin-3-ylcarbonyl)piperidin-4-yl]-1H-pyrazolo[3,4-d]pyrimidin-6-yl}phenyl)urea] are 2.2 µM, 1 µM and 3.56 µM.
The corresponding values for `CNC(=O)Nc1ccc(-c2nc(N3CCOCC3)c3cnn(C4CCN(CC(F)(F)F)CC4)c3n2)cc1` [Example 470, 1-methyl-3-(4-{4-morpholin-4-yl-1-[1-(2,2,2-trifluoroethyl)piperidin-4-yl]-1H-pyrazolo[3,4-d]pyrimidin-6-yl}phenyl)urea] are 0.3 µM, 0.056 µM and 0.187 µM.
The corresponding values for `CNC(=O)Nc1ccc(-c2nc(N3CCOCC3)c3cnn(C4CCN(Cc5cccnc5)CC4)c3n2)cc1F` [Compound 597, 1-(2-fluoro-4-{4-morpholin-4-yl-1-[1-(pyridin-3-ylmethyl)piperidin-4-yl]-1H-pyrazolo[3,4-d]pyrimidin-6-yl}phenyl)-3-methylurea] are 0.18 µM, 0.027 µM and 0.246 µM.
Regarding `CNC(=O)Nc1ccc(-c2nc(N3CCOCC3)c3cnn(C4CCN(Cc5cccnc5)CC4)c3n2)cc1Cl` [Compound 730, 1-(2-chloro-4-{4-morpholin-4-yl-1-[1-(pyridin-3-ylmethyl)piperidin-4-yl]-1H-pyrazolo[3,4-d]pyrimidin-6-yl}phenyl)-3-methylurea], the results for the IC50 in experiment [1], in experiment [2] and in experiment [3] were 1.8 µM, 0.42 µM and 0.364 µM, respectively.
The corresponding values for `CC(C)OC(=O)Nc1ccc(-c2nc(N3CCOCC3)c3cnn(C4CCN(Cc5ccccc5)CC4)c3n2)cc1` [Compound 208] are 11 µM, 5.8 µM and 3.79 µM.

In general, IC50 refers to the midpoint of a concentration-inhibition curve.
